Laboratory results published in US7029840B2 (priority 2000, dated 2006).
Read-outs that look alike come from different tables or passages of the source.

Tests used:
[1] = test system: intact cells of N. gonorrhoeae; assay type: cell-based, N. gonorrhoeae ATCC 19424; conditions: urine, room temperature; for average amplification MOTA values at day 0 versus day 6: 100 mM sodium citrate, sodium fluoride, sodium borate, 5 mM EDTA
Procedure: (§1) The samples were spiked with cells of N. gonorrhoeae a final concentration 2500 cells/ml. Each sample was incubated for 14 days at room temperature. At specific time points (day 0, 6, and 14), 2.0-ml volumes of each sample (eight replicates) was centrifuged at 2000×g for 30 minutes at room temperature. The supernate was decanted and the cell pellet was resuspended with a 2.0-ml volume of BSA/PBS, and then centrifuged at 2000×g for 30 minutes at room temperature. Again, the supernatant was decanted and the cell pellet was resuspended with a 2.0-ml volume of CT/GC diluent. […] SDA was performed on the cell lysate as described in Example 1.
Forty-milliliter volumes of negative urine was prepared with 100 mM sodium citrate (final concentration); 5, 10, and 15% (v/v) sucrose (final concentration); 5, 10, and 15% (v/v) PVP (final concentration); 5, 10, and 15 mM magnesium chloride (final concentration); 10 and 100 mM sodium fluoride (final concentration); 10 and 100 mM sodium formate (final concentration); 10 and 100 mM sodium borate (final concentration); 0.5 and 5 mM EDTA (final concentration); 0.5 and 5 mM EGTA (final concentration); and without chemical additive. The samples were spiked with cells of N. gonorrhoeae at a final concentration of 2500 cells/ml. Each sample was incubated for 6 days at room temperature. At specific time points (day 0 and 6), the samples were processed by centrifugation at 2000×g as described in Example 2. […] SDA was performed on the cell lysate as described in Example 1.

[2] = test system: intact cells of N. gonorrhoeae; assay type: cell-based, N. gonorrhoeae ATCC 19424; conditions: for average MOTA values for day 0 versus day 6: 100 mM sodium citrate, sodium fluoride, sodium borate, 5 mM EDTA, urine at 5, 25, 35, and 45° C.; for Average MOTA Value: urine
Procedure: as §1
The samples were spiked with cells of N. gonorrhoeae at a final concentration of 2500 cells/ml. Each sample was incubated for 6 days at 5, 25, 35, and 45° C. At specific time points (day 0 and 6), the samples were processed by centrifugation at 2000×g as described in Example 2. […] SDA was performed on the cell lysates as described in Example 1.

[3] = test system: N. gonorrhoeae plasmid DNA; experiment: Stability of N. gonorrhoeae plasmid DNA in urine, 3 days at room temperature (SDA, MOTA value); assay type: biochemical, Neisseria gonorrhoeae
Procedure: The samples were incubated for 3 days at room temperature. […] SDA was performed on the isolated DNA as described in Example 1.

[4] = test system: intact cells of N. gonorrhoeae; experiment: Stability of cells of N. gonorrhoeae in urine with sodium citrate, 14 days at room temperature (SDA, MOTA value); assay type: cell-based, N. gonorrhoeae ATCC 19424; conditions: 100 mM; for Average MOTA Value: urine
Procedure: as §1

[5] = test system: N. gonorrhoeae plasmid DNA; conditions: for Average MOTA Value: 60 min room temperature after DNA spike; for protection of N. gonorrhoeae plasmid DNA from degradation in human urine by endogenous nucleases: sodium citrate at 10, 20, and 40 mM, EDTA at 10, 40, 100 mM (so in the source)
Procedure: Twenty-milliliter volumes of negative pooled urine were prepared with 10, 40, and 100 mM sodium citrate (final concentration); 10, 20, and 40 mM EDTA (final concentration); and without chemical additive. In addition, a 20-ml volume of negative pooled urine was heated for 30 minutes (heated-treated urine). The samples were incubated for 60 minutes at room temperature. After the incubation step, the samples were spiked with N. gonorrhoeae plasmid DNA (2500 DNA copies/ml). The samples were incubated for 60 minutes at room temperature. After the incubation step, two-ml volumes from each sample (eight replicates) were heated for 30 minutes at 114° C. to denature the DNA.
A 1-ml volume of the 8 replicates as described above was added to ferrosoferric oxide. A 100-ul volume of 6 M glycine HCl was added to each sample. The DNA-ferrosoferric oxide complexes were separated on a magnet and washed two times with a 900-ul volume of 1 mM glycine HCl to reduce the ionic strength and remove nonspecifically bound materials. The DNA was released from the ferrosoferric oxide with 480-ul volume of elution buffer (88.3 mM KOH, 177.8 mM bicine, 12.1% (v/v) glycerol, and 11.0% (v/v) DMSO [final concentration]).
Strand Displacement Amplification (SDA) was performed according to the manufacturer's instructions (BDProbeTec™ET Chlamydia trachomatis and N. gonorrhoeae Amplified DNA Assay Package Insert L-000203 [November 1999]). A 150-ul volume of each sample was added into a priming microwell. The priming microwell plate was incubated for 20 minutes at room temperature, after which the plate was incubated at 72.5° C. The amplification microwell plate was incubated at 54° C. After 10 minutes, a 100-ul volume from each priming microwell was added into the corresponding amplification microwell. The amplification microwell plate was place in a BD ProbeTec ET instrument. Data was reported as MOTA value (metric other than acceleration).

[6] = test system: intact cells of N. gonorrhoeae; assay type: cell-based, N. gonorrhoeae ATCC 19424; conditions: for Average MOTA Value: 10 mM potassium EDTA, urine
Procedure: as §1
(§2) i) Potassium EDTA: Seventy-milliliter volumes of pooled negative urine were prepared with 10 mM potassium EDTA (final concentration). The samples were spiked with cells of N. gonorrhoeae at a final concentration of 2000 cells/ml. Each sample was incubated for 14 days at 5, 25, 33, 45, and 60° C. At specific time points (day 0, 6 and 14), the samples were processed by centrifugation at 2000×g as described in Example 3. […] SDA was performed on the cell lysates as described in Example 1.
as §2, with “ii) DNA/RNA Protect™:” for “i) Potassium EDTA:”, “10% (v/v) DNA/RNA Protect™” for “10 mM potassium EDTA”

## [F-].[Na+] [sodium fluoride, Sodium fluoride]
[1]; 10 mM, Day 0
  Average MOTA Value: 32162
[1]; 10 mM, Day 6
  Average MOTA Value: 10894
[1]
  average amplification MOTA values at day 0 versus day 6: not significantly different
[1]; 100 mM, Day 0
  Average MOTA Value: 26385
[1]; 100 mM, Day 6
  Average MOTA Value: 24559
[2]
  average MOTA values for day 0 versus day 6: no significant difference
[2]; 100 mM, 5° C., Day 0
  Average MOTA Value: 43807
[2]; 100 mM, 5° C., Day 6
  Average MOTA Value: 59543
[2]; 100 mM, 25° C., Day 0
  Average MOTA Value: 44945
[2]; 100 mM, 25° C., Day 6
  Average MOTA Value: 47391
[2]; 100 mM, 35° C., Day 0
  Average MOTA Value: 41608
[2]; 100 mM, 35° C., Day 6
  Average MOTA Value: 47347
[2]; 100 mM, 45° C., Day 0
  Average MOTA Value: 45741
[2]; 100 mM, 45° C., Day 6
  Average MOTA Value: 48043
[3]; 100 mM, Day 0
  Average MOTA Value: 27811
[3]; 100 mM, Day 3
  Average MOTA Value: 42689

## OC[C@H]1O[C@@](CO)(O[C@H]2O[C@H](CO)[C@@H](O)[C@H](O)[C@H]2O)[C@@H](O)[C@@H]1O [sucrose, Sucrose]
[1]; 5% (v/v), Day 0
  Average MOTA Value: 28427
[1]; 5% (v/v), Day 6
  Average MOTA Value: 501
[1]; 10% (v/v), Day 0
  Average MOTA Value: 29548
[1]; 10% (v/v), Day 6
  Average MOTA Value: 5555
[1]; 15% (v/v), Day 0
  Average MOTA Value: 27391
[1]; 15% (v/v), Day 6
  Average MOTA Value: 8497

## O=C([O-])CC(O)(CC(=O)[O-])C(=O)[O-].[Na+].[Na+].[Na+] [sodium citrate, Sodium citrate, trisodium salt]
[4]
  time for which stability of intact cells of N. gonorrhoeae in human urine was maintained: ≥ 14 days
[4]; Day 0
  Average MOTA Value: 30200
[4]; Day 6
  Average MOTA Value: 25391
[4]; Day 10
  Average MOTA Value: 27522
[4]; Day 14
  Average MOTA Value: 20953
[1]
  average amplification MOTA values at day 0 versus day 6: not significantly different
[1]; 100 mM, Day 0
  Average MOTA Value: 27310
[1]; 100 mM, Day 6
  Average MOTA Value: 26394
[2]
  average MOTA values for day 0 versus day 6: no significant difference
[2]; 100 mM, 5° C., Day 0
  Average MOTA Value: 56773
[2]; 100 mM, 5° C., Day 6
  Average MOTA Value: 57701
[2]; 100 mM, 25° C., Day 0
  Average MOTA Value: 59703
[2]; 100 mM, 25° C., Day 6
  Average MOTA Value: 51791
[2]; 100 mM, 35° C., Day 0
  Average MOTA Value: 54238
[2]; 100 mM, 35° C., Day 6
  Average MOTA Value: 51468
[2]; 100 mM, 45° C., Day 0
  Average MOTA Value: 59944
[2]; 100 mM, 45° C., Day 6
  Average MOTA Value: 63623
[3]; 100 mM, Day 0
  Average MOTA Value: 26852
[3]; 100 mM, Day 3
  Average MOTA Value: 30978
[5]; 10 mM additive in human urine
  Average MOTA Value: 6673
[5]; 40 mM additive in human urine
  Average MOTA Value: 36684
[5]; 100 mM additive in human urine
  Average MOTA Value: 24069
[5]
  protection of N. gonorrhoeae plasmid DNA from degradation in human urine by endogenous nucleases: protected N. gonorrhoeae plasmid DNA from degradation

## O=C(O)CN(CCOCCOCCN(CC(=O)O)CC(=O)O)CC(=O)O [EGTA, Ethylenebis(oxyethylenenitrilo) tetraacetic acid]
[1]; 0.5 mM, Day 0
  Average MOTA Value: 32611
[1]; 0.5 mM, Day 6
  Average MOTA Value: 1150
[1]; 5 mM, Day 0
  Average MOTA Value: 34504
[1]; 5 mM, Day 6
  Average MOTA Value: 6931

## O=C(O)CN(CCN(CC(=O)O)CC(=O)O)CC(=O)O [EDTA, Ethylenediaminetetraacetic acid]
[1]; 0.5 mM, Day 0
  Average MOTA Value: 35950
[1]; 0.5 mM, Day 6
  Average MOTA Value: 650
[1]; 5 mM, Day 0
  Average MOTA Value: 32392
[1]; 5 mM, Day 6
  Average MOTA Value: 34445
[1]
  average amplification MOTA values at day 0 versus day 6: not significantly different
[2]; 5 mM, 5° C., Day 0
  Average MOTA Value: 50132
[2]; 5 mM, 5° C., Day 6
  Average MOTA Value: 64610
[2]; 5 mM, 25° C., Day 0
  Average MOTA Value: 54871
[2]; 5 mM, 25° C., Day 6
  Average MOTA Value: 66009
[2]; 5 mM, 35° C., Day 0
  Average MOTA Value: 57077
[2]; 5 mM, 35° C., Day 6
  Average MOTA Value: 69291
[2]; 5 mM, 45° C., Day 0
  Average MOTA Value: 62891
[2]; 5 mM, 45° C., Day 6
  Average MOTA Value: 74667
[2]
  average MOTA values for day 0 versus day 6: no significant difference
[3]; 10 mM, Day 0
  Average MOTA Value: 32177
[3]; 10 mM, Day 3
  Average MOTA Value: 30445
[3]; 20 mM, Day 0
  Average MOTA Value: 34594
[3]; 20 mM, Day 3
  Average MOTA Value: 31366
[6]; 10 mM EDTA, 5, 27, 33, 45, and 60° C.
  time for which stability of intact cells of N. gonorrhoeae in human urine was maintained: ≥ 14 days
[6]; 5° C., Day 0
  Average MOTA Value: 26448
[6]; 5° C., Day 6
  Average MOTA Value: 35234
[6]; 5° C., Day 14
  Average MOTA Value: 36205
[6]; 27° C., Day 0
  Average MOTA Value: 26448
[6]; 27° C., Day 6
  Average MOTA Value: 31619
[6]; 27° C., Day 14
  Average MOTA Value: 36994
[6]; 33° C., Day 0
  Average MOTA Value: 26448
[6]; 33° C., Day 6
  Average MOTA Value: 34252
[6]; 33° C., Day 14
  Average MOTA Value: 38183
[6]; 45° C., Day 0
  Average MOTA Value: 26448
[6]; 45° C., Day 6
  Average MOTA Value: 36132
[6]; 45° C., Day 14
  Average MOTA Value: 41115
[6]; 60° C., Day 0
  Average MOTA Value: 26448
[6]; 60° C., Day 6
  Average MOTA Value: 32218
[6]; 60° C., Day 14
  Average MOTA Value: 26259
[5]; 10 mM additive in human urine
  Average MOTA Value: 16103
[5]; 20 mM additive in human urine
  Average MOTA Value: 16178
[5]; 40 mM additive in human urine
  Average MOTA Value: 20007
[5]
  protection of N. gonorrhoeae plasmid DNA from degradation in human urine by endogenous nucleases: protected N. gonorrhoeae plasmid DNA from degradation

## [Cl-].[Cl-].[Mg+2] [MgCl^2, Magnesium chloride]
[1]; 5 mM, Day 0
  Average MOTA Value: 28072
[1]; 5 mM, Day 6
  Average MOTA Value: 1507
[1]; 10 mM, Day 0
  Average MOTA Value: 27157
[1]; 10 mM, Day 6
  Average MOTA Value: 4547
[1]; 15 mM, Day 0
  Average MOTA Value: 35926
[1]; 15 mM, Day 6
  Average MOTA Value: 4868

## O.O.O.O.O.O.O.O.O.O.[Na+].[Na+].[O-]B1OB2OB([O-])OB(O1)O2 [sodium borate, Sodium borate]
[1]; 10 mM, Day 0
  Average MOTA Value: 26170
[1]; 10 mM, Day 6
  Average MOTA Value: 15464
[1]
  average amplification MOTA values at day 0 versus day 6: not significantly different
[1]; 100 mM, Day 0
  Average MOTA Value: 24607
[1]; 100 mM, Day 6
  Average MOTA Value: 28908
[2]
  average MOTA values for day 0 versus day 6: no significant difference
[2]; 100 mM, 5° C., Day 0
  Average MOTA Value: 41940
[2]; 100 mM, 5° C., Day 6
  Average MOTA Value: 40325
[2]; 100 mM, 25° C., Day 0
  Average MOTA Value: 49622
[2]; 100 mM, 25° C., Day 6
  Average MOTA Value: 50745
[2]; 100 mM, 35° C., Day 0
  Average MOTA Value: 60308
[2]; 100 mM, 35° C., Day 6
  Average MOTA Value: 60296
[2]; 100 mM, 45° C., Day 0
  Average MOTA Value: 63343
[2]; 100 mM, 45° C., Day 6
  Average MOTA Value: 62283
[3]; 100 mM, Day 0
  Average MOTA Value: 23263
[3]; 100 mM, Day 3
  Average MOTA Value: 34089

## O=C[O-].[Na+] [sodium formate, Sodium formate]
[1]; 10 mM, Day 0
  Average MOTA Value: 34446
[1]; 10 mM, Day 6
  Average MOTA Value: 2211
[1]; 100 mM, Day 0
  Average MOTA Value: 29357
[1]; 100 mM, Day 6
  Average MOTA Value: 2139
